The source of these data is patent US9884868B2, “TGF-beta inhibitors” (Rigel Pharmaceuticals, Inc., priority 2015, dated 2018).

Usually IC50 stands for the concentration at which inhibition is half-maximal.

Read-outs that look alike come from different tables or passages of the source.

The experiment concerns the target HIS-TGF-βR1 T204D (Homo sapiens (Human), UniProt P36897, T204D). Description: HTRF probe displacement assay with HIS-TGF-βR1 T204D. (In TR-FRET formats the signal depends on donor and acceptor labels being close together.)
The mark [1] stands for this setting: read-out: TGFbr1 IC50, HTRF probe displacement, 1 nM HIS-TGF-βR1 T204D, 1 hour at room temperature.

Chain of HIS-TGF-βR1 T204D (P36897 34-503 T204D): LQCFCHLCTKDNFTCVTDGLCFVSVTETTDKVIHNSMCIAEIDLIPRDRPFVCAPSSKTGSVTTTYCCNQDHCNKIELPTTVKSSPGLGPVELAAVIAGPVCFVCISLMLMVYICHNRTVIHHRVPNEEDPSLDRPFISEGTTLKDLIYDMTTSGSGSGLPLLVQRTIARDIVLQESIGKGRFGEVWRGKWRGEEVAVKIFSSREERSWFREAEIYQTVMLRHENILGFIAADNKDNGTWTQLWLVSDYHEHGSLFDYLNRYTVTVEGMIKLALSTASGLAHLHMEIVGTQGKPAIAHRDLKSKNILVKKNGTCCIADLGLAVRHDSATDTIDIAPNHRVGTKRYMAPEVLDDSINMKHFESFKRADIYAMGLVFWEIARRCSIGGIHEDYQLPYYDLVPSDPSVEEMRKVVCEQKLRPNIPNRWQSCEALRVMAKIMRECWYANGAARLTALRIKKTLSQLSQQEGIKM

For the molecule `CCC(CO)n1cnc(-c2ccc(F)cc2)c1-c1ccc2ncc(C(N)=O)n2c1` (stereo not shown) [179′, 6-(4-(4-fluorophenyl)-1-(1-hydroxybutan-2-yl)-1H-imidazol-5-yl)imidazo[1,2-a]pyridine-3-carboxamide], the IC50 under setting [1] was 2.2 nM.

`Cn1cnc(-c2ccc(F)c(Cl)c2)c1-c1ccc2nccn2c1` [181′, 6-(4-(3-chloro-4-fluorophenyl)-1-methyl-1H-imidazol-5-yl)imidazo[1,2-a]pyridine]: the IC50 under setting [1] is 6 nM. Still for that read-out and setting: the value for `Fc1ccc(-c2ncn(CCC(F)(F)F)c2-c2ccc3nccn3c2)cc1Cl` [182′, 6-(4-(3-chloro-4-fluorophenyl)-1-(3,3,3-trifluoropropyl)-1H-imidazol-5-yl)imidazo[1,2-a]pyridine] was 50.8 nM; that for `FCCCn1cnc(-c2ccc(F)c(Cl)c2)c1-c1ccc2nccn2c1` [183′, 6-(4-(3-chloro-4-fluorophenyl)-1-(3-fluoropropyl)-1H-imidazol-5-yl)imidazo[1,2-a]pyridine] was 21.6 nM; that for `Fc1ccc(-c2ncn(C3CC(F)(F)C3)c2-c2ccc3nccn3c2)cc1Cl` [184′, 6-(4-(3-chloro-4-fluorophenyl)-1-(3,3-difluorocyclobutyl)-1H-imidazol-5-yl)imidazo[1,2-a]pyridine] was 54.5 nM. With `Fc1ccc(-c2ncn([C@@H]3CCC(F)(F)C3)c2-c2ccc3nccn3c2)cc1Cl` [185′, (R)-6-(4-(3-chloro-4-fluorophenyl)-1-(3,3-difluorocyclopentyl)-1H-imidazol-5-yl)imidazo[1,2-a]pyridine], the IC50 under setting [1] was 30.1 nM.

As to `Fc1ccc(-c2ncn([C@H]3CCC(F)(F)C3)c2-c2ccc3nccn3c2)cc1Cl` [186′, (S)-6-(4-(3-chloro-4-fluorophenyl)-1-(3,3-difluorocyclopentyl)-1H-imidazol-5-yl)imidazo[1,2-a]pyridine], under setting [1], the IC50 is 228 nM. As for `FCCn1cnc(-c2ccc(F)c(Cl)c2)c1-c1ccc2nccn2c1` [187′, 6-(4-(3-chloro-4-fluorophenyl)-1-(2-fluoroethyl)-1H-imidazol-5-yl)imidazo[1,2-a]pyridine], the IC50 under setting [1] was determined as 3.3 nM.

`N#Cc1cnc2ccc(-c3c(-c4ccc(F)cc4)ncn3C3CNC3)nn12` [190C′, 6-(1-(azetidin-3-yl)-4-(4-fluorophenyl)-1H-imidazol-5-yl)imidazo[1,2-b]pyridazin-3-carbonitrile]: the IC50 under setting [1] turned out to be 86.2 nM.

As for `NC(=O)c1cnc2ccc(-c3c(-c4ccc(F)cc4)ncn3C3CNC3)nn12` [195B′, 6-(1-(azetidin-3-yl)-4-(4-fluorophenyl)-1H-imidazol-5-yl)imidazo[1,2-b]pyridazine-3-carboxamide], under setting [1], the concentration for half-maximal inhibition (IC50) turned out to be 45.4 nM. Still for that read-out and setting: the value for `NCc1cnc2ccc(-c3c(-c4ccc(F)cc4)ncn3CC(F)F)nn12` [196A′, (6-(1-(2,2-difluoroethyl)-4-(4-fluorophenyl)-1H-imidazol-5-yl)imidazo[1,2-b]pyridazin-3-yl)methanamine] was 20.1 nM.

For the molecule `CNC(=O)c1cnc2ccc(-c3c(-c4ccc(F)cc4)ncn3CC(F)F)nn12` [206′, 6-(1-(2,2-difluoroethyl)-4-(4-fluorophenyl)-1H-imidazol-5-yl)-N-methylimidazo[1,2-b]pyridazine-3-carboxamide], the IC50 under setting [1] amounted to 0.9 nM. Take `CONC(=O)c1cnc2ccc(-c3c(-c4ccc(F)cc4)ncn3CC(F)F)nn12` [209′, 6-(1-(2,2-difluoroethyl)-4-(4-fluorophenyl)-1H-imidazol-5-yl)-N-methoxyimidazo[1,2-b]pyridazine-3-carboxamide]: the IC50 under setting [1] turned out to be 0.7 nM. Still for that read-out and setting: the value for `C=Cc1cnc2ccc(-c3c(-c4ccc(F)cc4)ncn3CC(F)F)nn12` [213E′, 6-(1-(2,2-difluoroethyl)-4-(4-fluorophenyl)-1H-imidazol-5-yl)-3-vinylimidazo[1,2-b]pyridazine] was 1.6 nM.

As to `Fc1ccc(-c2ncn(CC(F)F)c2-c2ccc3nccn3c2)cc1Cl` [219′, 6-(4-(3-chloro-4-fluorophenyl)-1-(2,2-difluoroethyl)-1H-imidazol-5-yl)imidazo[1,2-a]pyridine], under setting [1], the IC50 came out at 9.9 nM.

Regarding `Fc1ccc(-c2ncn(CC(F)F)c2-c2ccc3nccn3c2)cc1F` [220′, 6-(1-(2,2-difluoroethyl)-4-(3,4-difluorophenyl)-1H-imidazol-5-yl)imidazo[1,2-a]pyridine], under setting [1], the IC50 stood at 41.4 nM. With `Fc1ccc(-c2ncn(CC(F)F)c2-c2ccc3nccn3c2)c(F)c1` [221′, 6-(1-(2,2-difluoroethyl)-4-(2,4-difluorophenyl)-1H-imidazol-5-yl)imidazo[1,2-a]pyridine], under setting [1], the IC50 is 6.8 nM. `Fc1ccc(Cl)cc1-c1ncn(CC(F)F)c1-c1ccc2nccn2c1` [222′, 6-(4-(5-chloro-2-fluorophenyl)-1-(2,2-difluoroethyl)-1H-imidazol-5-yl)imidazo[1,2-a]pyridine]: the IC50 under setting [1] was 2.9 nM. On to `Fc1cc(F)c(-c2ncn(CC(F)F)c2-c2ccc3nccn3c2)cc1Cl` [223′, 6-(4-(5-chloro-2,4-difluorophenyl)-1-(2,2-difluoroethyl)-1H-imidazol-5-yl)imidazo[1,2-a]pyridine], for which the IC50 under setting [1] was 2.2 nM. With `N#Cc1cnc2ccc(-c3c(-c4ccc(F)c(F)c4)ncn3CC(F)F)cn12` [226′, 6-(1-(2,2-difluoroethyl)-4-(3,4-difluorophenyl)-1H-imidazol-5-yl)imidazo[1,2-a]pyridine-3-carbonitrile], under setting [1], the IC50 came to 73.2 nM. `N#Cc1cnc2ccc(-c3c(-c4ccc(F)cc4F)ncn3CC(F)F)cn12` [227′, 6-(1-(2,2-difluoroethyl)-4-(2,4-difluorophenyl)-1H-imidazol-5-yl)imidazo[1,2-a]pyridine-3-carbonitrile] registered an IC50 of 8.1 nM. Take `N#Cc1cnc2ccc(-c3c(-c4cc(Cl)ccc4F)ncn3CC(F)F)cn12` [228′, 6-(4-(5-chloro-2-fluorophenyl)-1-(2,2-difluoroethyl)-1H-imidazol-5-yl)imidazo[1,2-a]pyridine-3-carbonitrile]: under setting [1], the IC50 turned out to be 3.7 nM. The same measure, in the same setting: the value for `N#Cc1cnc2ccc(-c3c(-c4cc(Cl)c(F)cc4F)ncn3CC(F)F)cn12` [229′, 6-(4-(5-chloro-2,4-difluorophenyl)-1-(2,2-difluoroethyl)-1H-imidazol-5-yl)imidazo[1,2-a]pyridine-3-carbonitrile] was 8.6 nM. In the case of `NC(=O)c1cnc2ccc(-c3c(-c4ccc(F)cc4)ncn3CC(F)F)cn12` [230′, 6-(1-(2,2-difluoroethyl)-4-(4-fluorophenyl)-1H-imidazol-5-yl)imidazo[1,2-a]pyridine-3-carboxamide], the IC50 under setting [1] came out at 1.7 nM.

Take `NC(=O)c1cnc2ccc(-c3c(-c4ccc(F)c(F)c4)ncn3CC(F)F)cn12` [232′, 6-(1-(2,2-difluoroethyl)-4-(3,4-difluorophenyl)-1H-imidazol-5-yl)imidazo[1,2-a]pyridine-3-carboxamide]: under setting [1], the IC50 came out at 1.8 nM. The same measure, in the same setting: the value for `NC(=O)c1cnc2ccc(-c3c(-c4ccc(F)cc4F)ncn3CC(F)F)cn12` [233′, 6-(1-(2,2-difluoroethyl)-4-(2,4-difluorophenyl)-1H-imidazol-5-yl)imidazo[1,2-a]pyridine-3-carboxamide] was 1 nM; that for `NC(=O)c1cnc2ccc(-c3c(-c4cc(Cl)ccc4F)ncn3CC(F)F)cn12` [234′, 6-(4-(5-chloro-2-fluorophenyl)-1-(2,2-difluoroethyl)-1H-imidazol-5-yl)imidazo[1,2-a]pyridine-3-carboxamide] was 1.1 nM.

Turning to `N#Cc1cnc2ccc(-c3c(-c4ccccc4)ncn3CC(F)F)nn12` [237′, 6-(1-(2,2-difluoroethyl)-4-phenyl-1H-imidazol-5-yl)imidazo[1,2-b]pyridazine-3-carbonitrile], the IC50 under setting [1] amounted to 2.9 nM. In the case of `N#Cc1cnc2ccc(-c3c(-c4cc(Cl)cc(Cl)c4)ncn3CC(F)F)nn12` [238′, 6-(4-(3,5-dichlorophenyl)-1-(2,2-difluoroethyl)-1H-imidazol-5-yl)imidazo[1,2-b]pyridazine-3-carbonitrile], the IC50 under setting [1] was determined as 39.7 nM. In the case of `N#Cc1cnc2ccc(-c3c(-c4cccc(N)c4)ncn3CC(F)F)nn12` [240′, 6-(4-(3-aminophenyl)-1-(2,2-difluoroethyl)-1H-imidazol-5-yl)imidazo[1,2-b]pyridazine-3-carbonitrile], under setting [1], the IC50 turned out to be 14.3 nM. On the same count and under the same terms, the value for `Cc1ccc(-c2ncn(CC(F)F)c2-c2ccc3ncc(C#N)n3n2)cc1` [241′, 6-(1-(2,2-difluoroethyl)-4-(p-tolyl)-1H-imidazol-5-yl)imidazo[1,2-b]pyridazine-3-carbonitrile] was 173 nM; that for `COc1ccc(-c2ncn(CC(F)F)c2-c2ccc3ncc(C#N)n3n2)cc1` [242′, 6-(1-(2,2-difluoroethyl)-4-(4-methoxyphenyl)-1H-imidazol-5-yl)imidazo[1,2-b]pyridazine-3-carbonitrile] was 5 nM; that for `N#Cc1cnc2ccc(-c3c(-c4ccc5c(c4)OCO5)ncn3CC(F)F)nn12` [247′, 6-(4-(benzo[d][1,3]dioxol-5-yl)-1-(2,2-difluoroethyl)-1H-imidazol-5-yl)imidazo[1,2-b]pyridazine-3-carbonitrile] was 14.3 nM. Still for that read-out and setting: the value for `N#Cc1cnc2ccc(-c3c(-c4ccccc4O)ncn3CC(F)F)nn12` [248′, 6-(1-(2,2-difluoroethyl)-4-(2-hydroxyphenyl)-1H-imidazol-5-yl)imidazo[1,2-b]pyridazine-3-carbonitrile] was 0.7 nM. As for `N#Cc1cnc2ccc(-c3c(-c4cccc(O)c4)ncn3CC(F)F)nn12` [249′, 6-(1-(2,2-difluoroethyl)-4-(3-hydroxyphenyl)-1H-imidazol-5-yl)imidazo[1,2-b]pyridazine-3-carbonitrile], the IC50 under setting [1] stood at 2.2 nM. For `N#Cc1cnc2ccc(-c3c(-c4ccc(O)cc4)ncn3CC(F)F)nn12` [250′, 6-(1-(2,2-difluoroethyl)-4-(4-hydroxyphenyl)-1H-imidazol-5-yl)imidazo[1,2-b]pyridazine-3-carbonitrile], the IC50 under setting [1] was 136 nM.

For `N#Cc1cnc2ccc(-c3c(-c4ccccc4C(N)=O)ncn3CC(F)F)nn12` [251′, 2-(5-(3-cyanoimidazo[1,2-b]pyridazin-6-yl)-1-(2,2-difluoroethyl)-1H-imidazol-4-yl)benzamide], under setting [1], the IC50 came to 73.5 nM.
